Measured values reported in patent US6972296B2, “Carboxylic acid derivatives that inhibit the binding of integrins to their receptors” (Encysive Pharmaceuticals Inc., priority 1999, dated 2005).
pIC50: −log10 of the molar value.

These molecules were tested against T1, α4β1 integrin (Homo sapiens, UniProt P05556+P13612) (assay: Adhesion of calcein-labeled Ramos cells to CS1 (fibronectin) peptide conjugated ovalbumin). Conditions: Table 3; Ramos cell adhesion to CS1 conjugated ovalbumin, 30 minutes at 37° C.
T1 construct: endogenous in cells; host or cells: Ramos cells
T1 sequence (P13612 34-1032): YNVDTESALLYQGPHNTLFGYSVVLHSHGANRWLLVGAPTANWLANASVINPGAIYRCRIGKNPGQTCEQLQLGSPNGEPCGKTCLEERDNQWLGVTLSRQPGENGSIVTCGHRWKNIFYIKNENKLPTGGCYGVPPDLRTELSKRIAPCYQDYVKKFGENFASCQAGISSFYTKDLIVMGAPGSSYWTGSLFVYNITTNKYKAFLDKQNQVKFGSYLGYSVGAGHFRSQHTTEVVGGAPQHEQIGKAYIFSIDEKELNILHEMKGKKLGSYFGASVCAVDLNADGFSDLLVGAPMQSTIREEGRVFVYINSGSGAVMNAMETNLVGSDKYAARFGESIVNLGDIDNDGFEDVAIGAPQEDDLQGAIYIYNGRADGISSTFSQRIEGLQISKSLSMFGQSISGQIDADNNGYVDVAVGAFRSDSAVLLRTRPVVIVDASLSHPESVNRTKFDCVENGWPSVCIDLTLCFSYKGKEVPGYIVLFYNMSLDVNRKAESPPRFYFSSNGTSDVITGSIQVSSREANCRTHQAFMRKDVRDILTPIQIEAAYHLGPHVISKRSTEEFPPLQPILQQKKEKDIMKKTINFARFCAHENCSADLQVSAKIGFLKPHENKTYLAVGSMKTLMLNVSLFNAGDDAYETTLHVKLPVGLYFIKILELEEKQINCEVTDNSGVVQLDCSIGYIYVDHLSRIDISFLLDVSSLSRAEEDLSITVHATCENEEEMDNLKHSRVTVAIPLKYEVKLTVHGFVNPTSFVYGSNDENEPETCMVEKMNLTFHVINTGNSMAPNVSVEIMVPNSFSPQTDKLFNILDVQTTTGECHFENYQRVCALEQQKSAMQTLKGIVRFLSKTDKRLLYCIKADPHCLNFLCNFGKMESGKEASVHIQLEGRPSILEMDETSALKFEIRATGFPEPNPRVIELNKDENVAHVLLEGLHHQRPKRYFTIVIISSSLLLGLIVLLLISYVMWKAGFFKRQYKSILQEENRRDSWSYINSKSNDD
T1 sequence (P05556 21-798): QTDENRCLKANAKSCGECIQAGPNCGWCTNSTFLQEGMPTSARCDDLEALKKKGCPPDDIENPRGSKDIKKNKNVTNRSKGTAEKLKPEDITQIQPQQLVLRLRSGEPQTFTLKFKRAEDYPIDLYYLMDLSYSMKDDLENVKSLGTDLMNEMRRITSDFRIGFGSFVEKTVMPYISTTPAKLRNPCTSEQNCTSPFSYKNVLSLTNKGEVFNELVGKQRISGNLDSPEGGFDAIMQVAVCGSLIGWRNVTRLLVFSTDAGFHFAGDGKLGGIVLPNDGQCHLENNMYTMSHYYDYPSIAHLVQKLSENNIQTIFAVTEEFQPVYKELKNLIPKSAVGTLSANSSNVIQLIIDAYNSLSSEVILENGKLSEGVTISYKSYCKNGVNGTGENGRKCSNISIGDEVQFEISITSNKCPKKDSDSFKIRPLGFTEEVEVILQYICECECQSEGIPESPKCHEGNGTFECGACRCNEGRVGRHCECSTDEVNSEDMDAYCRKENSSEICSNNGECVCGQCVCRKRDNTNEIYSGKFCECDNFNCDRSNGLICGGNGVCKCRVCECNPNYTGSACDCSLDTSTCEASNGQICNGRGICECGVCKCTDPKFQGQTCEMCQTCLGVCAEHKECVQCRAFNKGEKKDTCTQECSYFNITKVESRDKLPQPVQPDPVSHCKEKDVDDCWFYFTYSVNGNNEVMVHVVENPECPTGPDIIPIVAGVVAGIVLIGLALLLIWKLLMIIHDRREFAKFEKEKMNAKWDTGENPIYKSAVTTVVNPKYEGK
Assay type: cell-based
Protocol: A procedure in which a 26-amino acid peptide containing the CS1 sequence of fibronectin with an N-terminal Cys ([…]) was coupled to maleimide activated ovalbumin was used to determine the efficacy of the compounds synthesized. Bovine serum albumin (BSA) and CS1 conjugated ovalbumin were coated onto 96-well polystyrene plates at 0.5 μg/ml in TBS (50 mM TRIS, pH 7.5; 150 mM NaCl) at 4° C. for 16 hours. The plates were washed three times with TBS and blocked with TBS containing 3% BSA at room temperature for 4 hours. Blocked plates were washed three times in binding buffer (TBS; 1 mM MgCl2; 1 mM CaCl2; 1 mM MnCl2) prior to assay. Ramos cells fluorescently labeled with calcein AM were resuspended in binding buffer (10^7 cells/ml) and diluted 1:2 with same buffer with or without compound. 100 μM of compound was added. The cells were added immediately to the wells (2.5×10^5 cells/well) and incubated for 30 minutes at 37° C. Following three washes with binding buffer, adherent cells were lysed and quantitated using a fluorometer. IC50 is defined as the dose required to give 50% inhibition, measured in μM for Tables 2 and 4. The lower the IC50 value and the greater the percentage of inhibition, the more efficient the compound is at prevention of cell adhesion.

Compound | pIC50
COc1ccn(Cc2ccccc2Cl)c(=O)c1NC(=O)N[C@@H](CC(=O)O)c1ccc(C)cc1 | 7.70
COc1ccc([C@H](CC(=O)O)NC(=O)Nc2c(O)ccn(Cc3ccccc3Cl)c2=O)cc1C [(3S)-3-{[({1-[(2-chlorophenyl)methyl]-4-hydroxy-2-oxo-1,2-dihydro-3-pyridinyl}amino)carbonyl]amino}-3-[3-methyl-4-(methyloxy)phenyl]propanoic acid] | 8.10
Cc1ccc([C@H](CC(=O)O)NC(=O)Nc2c(-c3ccccc3)ccn(Cc3ccccc3Cl)c2=O)cc1 [(3S)-3-{[({1-[(2-chlorophenyl)methyl]-2-oxo-4-phenyl-1,2-dihydro-3-pyridinyl}amino)carbonyl]amino}-3-(4-methylphenyl)propanoic acid] | 8.00
Cc1ccc([C@H](CC(=O)O)NC(=O)Nc2c(O)cc(C)n(Cc3ccccc3Cl)c2=O)cc1 [(3S)-3-{[({1-[(2-chlorophenyl)methyl]-4-hydroxy-6-methyl-2-oxo-1,2-dihydro-3-pyridinyl}amino)carbonyl]amino}-3-(4-methylphenyl)propanoic acid] | 7.82
Cc1ccc([C@H](CC(=O)O)NC(=O)Nc2c(O)ccn(Cc3c(F)cccc3Cl)c2=O)cc1 [(3S)-3-{[({1-[(2-chloro-6-fluorophenyl)methyl]-4-hydroxy-2-oxo-1,2-dihydro-3-pyridinyl}amino)carbonyl]amino}-3-(4-methylphenyl)propanoic acid] | 8.00

Same assay, conditions: Table 4; Ramos cell adhesion to CS1 conjugated ovalbumin, 30 minutes at 37° C.

Compound | pIC50
O=C(O)C[C@H](NC(=O)Nc1cccn(Cc2ccccc2Cl)c1=O)c1c(O)cccc1O | 5.52
O=C(O)C[C@H](NC(=O)Nc1cccn(Cc2cccc(C(F)(F)F)c2)c1=O)c1ccc2c(c1)OCO2 | 6.10
O=C(Nc1cccn(Cc2cccs2)c1=O)NC(c1ccc2c(c1)OCO2)C(F)(F)C(=O)O (stereo not shown) [3-(1,3-benzodioxol-5-yl)-2,2-difluoro-3-[({[2-oxo-1-(2-thiophenylmethyl)-1,2-dihydro-3-pyridinyl]amino}carbonyl)amino]propanoic acid] | < 4.00
COc1cccc([C@H](CC(=O)O)NC(=O)Nc2cccn(Cc3cccs3)c2=O)c1 | 5.85
O=C(O)C[C@H](NC(=O)Nc1cccn(Cc2cccs2)c1=O)c1ccc2c(c1)CCO2 | 6.85
O=C(O)C[C@H](NC(=O)Nc1cccc(Oc2ccccc2)c1)c1ccc2c(c1)OCO2 | 4.30
COc1cccc(OC)c1[C@H](CC(=O)O)NC(=O)Nc1cccn(Cc2ccccc2Cl)c1=O | 5.22
COc1ccccc1Cn1cccc(NC(=O)N[C@@H](CC(=O)O)c2ccc3c(c2)OCO3)c1=O | 6.30
COc1ccc([C@H](CC(=O)O)NC(=O)Nc2cccn(Cc3ccccc3Br)c2=O)cc1C | 6.70
Cc1ccc([C@H](CC(=O)O)NC(=O)Nc2cccn(Cc3c(F)cccc3F)c2=O)cc1 | 6.52

Same assay, conditions: Table 5; Ramos cell adhesion to CS1 conjugated ovalbumin; dose required to give 50% inhibition

Compound | pIC50
CCCc1cn(Cc2ccccc2Cl)c(=O)c(NC(=O)N[C@@H](CC(=O)O)c2cccc(OCC)c2)c1O [(3S)-3-[({[1-(2-chlorobenzyl)-4-hydroxy-2-oxo-5-propyl-1,2-dihydropyridin-3-yl]amino}carbonyl)amino]-3-(3-ethoxyphenyl)propanoic acid] | 8.52
Cc1ccc([C@H](CC(=O)O)NC(=O)Nc2c(O)c(C)cn(Cc3ccc(Cl)cc3Cl)c2=O)cc1 | 7.70
Cc1ccc([C@H](CC(=O)O)NC(=O)Nc2c(O)c(C)cn(Cc3c(C)cccc3Cl)c2=O)cc1 [(3S)-3-[({[1-(2-chloro-6-methylbenzyl)-4-hydroxy-5-methyl-2-oxo-1,2-dihydropyridin-3-yl]amino}carbonyl)amino]-3-(4-methylphenyl)propanoic acid] | 8.00
CCOc1ccc([C@H](CC(=O)O)NC(=O)Nc2c(O)c(C)c(C)n(Cc3ccccc3Cl)c2=O)cc1OCC [(3S)-3-[({[1-(2-chlorobenzyl)-4-hydroxy-5,6-dimethyl-2-oxo-1,2-dihydropyridin-3-yl]amino}carbonyl)amino]-3-(3,4-diethoxyphenyl)propanoic acid] | 8.52
COc1cc([C@H](CC(=O)O)NC(=O)Nc2c(O)c(C)c(C)n(Cc3ccccc3Cl)c2=O)ccc1C | 7.82
Cc1ccc([C@H](CC(=O)O)NC(=O)Nc2c(O)c3c(n(Cc4ccccc4Cl)c2=O)CCCC3)cc1 | 7.70

Second part, the molecule after the results:

pIC50 | Compound
6.72 | C[C@H](CC(=O)O)NC(=O)Nc1c(O)ccn(Cc2ccccc2Cl)c1=O
8.52 | Cc1ccc([C@H](CC(=O)O)NC(=O)Nc2c(O)c3c(n(Cc4ccccc4Cl)c2=O)CCC3)cc1 [(3S)-3-[({[1-(2-chlorobenzyl)-4-hydroxy-2-oxo-2,5,6,7-tetrahydro-1H-cyclopenta[b]pyridin-3-yl]amino}carbonyl)amino]-3-(4-methylphenyl)propanoic acid]
7.52 | Cc1ccc([C@H](CC(=O)O)NC(=O)Nc2c(O)ccn(Cc3ccc(C(C)(C)C)cc3)c2=O)cc1
7.70 | COc1cc([C@H](CC(=O)O)NC(=O)Nc2c(O)c(C)cn(Cc3ccccc3Cl)c2=O)ccc1C

Same assay, conditions: Table 6; Ramos cell adhesion to CS1 conjugated ovalbumin, 30 minutes at 37° C.

Compound | pIC50
CCOc1ccc([C@H](CC(=O)O)NC(=O)Nc2c(O)c3c(n(Cc4ccccc4Cl)c2=O)CCC3)cc1OCC | 8.52
Cc1ccc(Cn2cc(C)c(O)c(NC(=O)N[C@@H](CC(=O)O)c3ccc(C)cc3)c2=O)cc1 | 6.82
Cc1ccc([C@H](CC(=O)O)NC(=O)Nc2c(O)c(C)cn(Cc3c(Cl)cccc3Cl)c2=O)cc1 | 7.70
CCCCOc1cccc([C@H](CC(=O)O)NC(=O)Nc2c(O)c3c(n(Cc4ccccc4Cl)c2=O)CCC3)c1 | 7.70
CCOc1cccc([C@H](CC(=O)O)NC(=O)Nc2c(O)c3c(n(Cc4c(C)cccc4Cl)c2=O)CCC3)c1 [(3S)-3-[({[1-(2-chloro-6-methylbenzyl)-4-hydroxy-2-oxo-2,5,6,7-tetrahydro-1H-cyclopenta[b]pyridin-3-yl]amino}carbonyl)amino]-3-(3-ethoxyphenyl)propanoic acid] | 8.40
CC(C)Oc1cccc([C@H](CC(=O)O)NC(=O)Nc2c(O)c3c(n(Cc4ccccc4Cl)c2=O)CCC3)c1 [(3S)-3-[({[1-(2-chlorobenzyl)-4-hydroxy-2-oxo-2,5,6,7-tetrahydro-1H-cyclopenta[b]pyridin-3-yl]amino}carbonyl)amino]-3-(3-isopropoxyphenyl)propanoic acid] | 8.52
Cc1cn(Cc2ccccc2Cl)c(=O)c(NC(=O)NC(CC(=O)O)c2ccc(-c3ccccc3)cc2)c1O (stereo not shown) | 6.89
CCOc1cccc([C@H](CC(=O)O)NC(=O)Nc2c(O)c3ccccc3n(Cc3ccccc3Cl)c2=O)c1 | 7.92
COc1ccc2cc(C(CC(=O)O)NC(=O)Nc3c(O)c(C)cn(Cc4c(C)cccc4Cl)c3=O)ccc2c1 (stereo not shown) | 7.46

Second part, the molecule after the results:

pIC50 | Compound
8.00 | Cc1cn(Cc2ccccc2Cl)c(=O)c(NC(=O)N[C@@H](CC(=O)O)c2cccc(C(F)(F)F)c2)c1O
7.70 | Cc1ccc([C@H](CC(=O)O)NC(=O)Nc2c(O)c(C)cn(Cc3cccc(Cl)c3)c2=O)cc1
6.80 | COc1ccc(C(CC(=O)O)NC(=O)Nc2c(O)ccn(Cc3ccccc3Cl)c2=O)c2ccccc12 (stereo not shown)
7.82 | COc1ccc2cc(C(CC(=O)O)NC(=O)Nc3c(O)ccn(Cc4ccccc4Cl)c3=O)ccc2c1 (stereo not shown)
6.82 | O=C(O)C[C@H](NC(=O)Nc1c(O)ccn(Cc2ccccc2Cl)c1=O)c1ccccn1
6.94 | O=C(O)C[C@@H](CCc1ccccc1)NC(=O)Nc1c(O)ccn(Cc2ccccc2Cl)c1=O

Same assay, conditions: Table 7; Ramos cell adhesion to CS1 conjugated ovalbumin; dose required to give 50% inhibition

Compound | pIC50
CCOc1ccc(Cl)c(Cl)c1Cn1c2c(c(O)c(NC(=O)N[C@@H](CC(=O)O)c3cccc(OC(C)C)c3)c1=O)CCC2 | 8.30
CCOc1cccc([C@H](CC(=O)O)NC(=O)Nc2c(O)c(C)c(C)n(Cc3c(Cl)cccc3OCC)c2=O)c1 | 8.40
Cc1ccc([C@H](CC(=O)O)NC(=O)Nc2c(O)c(C)cn(Cc3cc(S(=O)(=O)N4CCCCC4)ccc3Cl)c2=O)cc1 | 7.57
CCOc1cccc(Cl)c1Cn1c2c(c(O)c(NC(=O)N[C@@H](CC(=O)O)c3cccc(CC(C)C)c3)c1=O)CCC2 | 8.40
CCOc1c(Cl)ccc([C@H](CC(=O)O)NC(=O)Nc2c(O)c3c(n(Cc4ccccc4Cl)c2=O)CCC3)c1Cl | 6.65
COc1cccc(OC)c1-c1ccc([C@H](CC(=O)O)NC(=O)Nc2c(O)c(C)cn(Cc3ccccc3Cl)c2=O)cc1 | 7.40
Cc1cccc(Cl)c1Cn1c2c(c(O)c(NC(=O)N[C@@H](CC(=O)O)c3cccc(OCC4CC4)c3)c1=O)CCC2 | 8.00
Cc1ccc([C@H](CC(=O)O)NC(=O)Nc2c(O)c(C)cn(Cc3c(Cl)cccc3OCC3CCCC3)c2=O)cc1 | 7.70
Cc1cccc(Cl)c1Cn1c2c(c(O)c(NC(=O)N[C@@H](CC(=O)O)c3cccc(OC4CC4)c3)c1=O)CCC2 | 8.40
Cc1ccc(C(CC(=O)O)NC(=O)Nc2c(O)c(C)cn(Cc3ccccc3Cl)c2=O)o1 (stereo not shown) | 7.70

Next, values leading:

pIC50 | Compound
6.76 | Cc1cn(Cc2ccccc2Cl)c(=O)c(NC(=O)N[C@@H](CC(=O)O)c2ccc(C(C)C)cc2)c1O
6.80 | Cc1cn(Cc2ccccc2Cl)c(=O)c(NC(=O)N[C@@H](CC(=O)O)c2cccc(-c3ccccc3C(F)(F)F)c2)c1O
7.74 | Cc1cn(Cc2ccccc2Cl)c(=O)c(NC(=O)N[C@@H](CC(=O)O)c2ccc3c(c2)CCC3)c1O
8.05 | Cc1cn(Cc2ccccc2Cl)c(=O)c(NC(=O)N[C@@H](CC(=O)O)c2cccc(O)c2)c1O
7.46 | Cc1cn(Cc2ccccc2Cl)c(=O)c(NC(=O)NC(CC(=O)O)c2ccc(C3CC3)cc2)c1O (stereo not shown)
